According to DBAASP:
In brackets after ≈: the same amount, converted by molar mass. Several values for one entry are separate records, joined by “and”; a condition that tells them apart may be missing. Identical values can stand only once. Each block holds one compound with its values, some of them ahead of it.

Key:
Test in all cases: ≥ marks a high value that may be exact or a test limit, other limits are often not marked, values filed in µg/mL are converted to µM
Escherichia coli JW0013 = system: Escherichia coli JW0013
[1] = system: Staphylococcus aureus ATCC 2592
[2] = system: Candida albicans ATCC 2002
[3] = system: Escherichia coli ATCC 25922
[4] = system: Micrococcus luteus ATCC 9341
[5] = system: Salmonella enterica subsp. enterica serovar Typhimurium C77-31
[6] = system: Enterococcus faecalis ATCC 29212
[7] = system: Pseudomonas aeruginosa ATCC 27853
[8] = system: Staphylococcus epidermidis ATCC 12228
[9] = system: Staphylococcus aureus ATCC 29213
[10] = system: Staphylococcus aureus ATCC 6538
[11] = system: Bacillus subtilis ATCC 23857
[12] = system: Pseudomonas aeruginosa ATCC 9027
Shigella dysenteriae = system: Shigella dysenteriae
[13] = system: Bacillus subtilis ATCC 6633
[14] = system: Staphylococcus aureus ATCC 25923
Pseudomonas aeruginosa = system: Pseudomonas aeruginosa
Bacillus cereus = system: Bacillus cereus
[15] = system: Klebsiella pneumoniae ATCC 700603
Escherichia coli = system: Escherichia coli
Escherichia coli B = system: Escherichia coli B
Bacillus subtilis 168 = system: Bacillus subtilis 168
Staphylococcus aureus = system: Staphylococcus aureus
Escherichia coli UB1005 = system: Escherichia coli UB1005

MIC (Escherichia coli JW0013): 1.34 µM (≈ 3.3 µg/mL)
Structure (SMILES): CC[C@H](C)[C@H](NC(=O)[C@H](CCCN=C(N)N)NC(=O)[C@H](CCCN=C(N)N)NC(=O)[C@@H]1CCCN1C(=O)[C@@H]1CCCN1C(=O)[C@H](CCCN=C(N)N)NC(=O)[C@@H]1CCCN1C(=O)[C@H](CCCN=C(N)N)NC(=O)[C@@H]1CCCN1C(=O)[C@H](CCCCN)NC(=O)[C@H](CCCN=C(N)N)NC(=O)[C@@H]1CCCN1C(=O)[C@H](CCCN=C(N)N)NC(=O)[C@H](CCCCN)NC(=O)[C@H](CC(=O)O)NC(=O)[C@@H](N)C(C)C)C(=O)N[C@@H](Cc1ccc(O)cc1)C(=O)N[C@@H](CC(N)=O)C(=O)N[C@@H](CCCN=C(N)N)C(N)=O [VDKRPRKPRPRPPRRIYNR]

MIC [1]: 6.57 µM (≈ 9.99 µg/mL) | MIC [2]: 8.21 µM (≈ 12.5 µg/mL) | MIC [3]: 19.7 µM (≈ 30 µg/mL)
Structure (SMILES): CC[C@H](C)[C@H](NC(=O)[C@H](CC(C)C)NC(=O)[C@@H](N)Cc1ccccc1)C(=O)N[C@H](C(=O)N[C@@H](CCCN=C(N)N)C(=O)N[C@@H](CCCN=C(N)N)C(=O)N1CCC[C@H]1C(=O)N[C@H](C(=O)N[C@H](C(=O)N[C@@H](CC(C)C)C(=O)NCC(=O)N[C@@H](CC(C)C)C(=O)N[C@@H](CC(C)C)C(N)=O)C(C)C)[C@@H](C)CC)[C@@H](C)CC [FLIIRRPIVLGLL]

MIC [4]: ≥ 100 µM
Structure (SMILES): CC[C@H](C)[C@H](N)C(=O)N[C@@H](CC(C)C)C(=O)N1CCC[C@H]1C(=O)N[C@@H](Cc1cnc[nH]1)C(=O)N[C@@H](CCCCN)C(=O)N[C@@H](Cc1cnc[nH]1)C(=O)N1CCC[C@H]1C(=O)N[C@@H](Cc1cnc[nH]1)C(=O)N[C@@H](Cc1cnc[nH]1)C(=O)N1CCC[C@H]1C(=O)N[C@@H](Cc1cnc[nH]1)C(=O)N[C@@H](CCCN=C(N)N)C(=O)N[C@@H](CCCN=C(N)N)C(N)=O [ILPHKHPHHPHRR]

MIC [5]: 2 µM and 4 µM | MIC [6]: 2 µM and 4 µM | MIC [7]: 4 µM (≈ 11.7 µg/mL) | MIC [8]: 2 µM and 4 µM | MIC [9]: 2 µM and 4 µM | MIC [3]: 4 µM (≈ 11.7 µg/mL)
Structure (SMILES): CC(C)C[C@H](NC(=O)[C@H](CCCN=C(N)N)NC(=O)[C@H](CC(N)=O)NC(=O)[C@H](C)NC(=O)[C@H](CCCN=C(N)N)NC(=O)[C@H](CC(C)C)NC(=O)[C@H](Cc1c[nH]c2ccccc12)NC(=O)[C@H](CC(C)C)NC(=O)[C@H](CCCN=C(N)N)NC(=O)[C@H](CCCN=C(N)N)NC(=O)[C@H](CC(C)C)NC(=O)[C@H](CC(C)C)NC(=O)[C@H](CCCN=C(N)N)NC(=O)[C@H](CC(N)=O)NC(=O)[C@H](C)NC(=O)[C@H](CCCN=C(N)N)NC(=O)[C@H](CC(C)C)NC(=O)[C@H](Cc1c[nH]c2ccccc12)NC(=O)[C@H](CC(C)C)NC(=O)[C@H](CCCN=C(N)N)NC(=O)[C@H](CCCN=C(N)N)NC(=O)[C@@H](N)CC(C)C)C(N)=O [LRRLWLRANRLLRRLWLRANRL]

MIC [10]: 128 µM (≈ 204 µg/mL) | MIC [11]: 1.7 µM (≈ 2.71 µg/mL) | MIC [3]: 22 µM (≈ 35 µg/mL) | MIC [12]: 21 µM (≈ 33.5 µg/mL)
Structure (SMILES): CC[C@H](C)[C@H](NC(=O)[C@H](CCCCN)NC(=O)[C@H](CCCCN)NC(=O)[C@@H](NC(=O)[C@@H](NC(=O)[C@H](CCCCN)NC(=O)[C@H](CCCCN)NC(=O)[C@@H](NC(=O)[C@@H](NC(=O)[C@H](CCCCN)NC(=O)[C@H](CCCCN)NC(=O)[C@@H](NC(=O)[C@@H](NC(=O)CN)[C@@H](C)CC)C(C)C)[C@@H](C)CC)C(C)C)[C@@H](C)CC)C(C)C)C(N)=O [GIVKKIVKKIVKKI]

MIC (Shigella dysenteriae): 3.48 µM (≈ 9.37 µg/mL) | MIC [1]: 0.434 µM (≈ 1.17 µg/mL) | MIC [2]: 1.74 µM (≈ 4.69 µg/mL) | MIC [13]: 1.74 µM (≈ 4.69 µg/mL) | MIC [3]: 6.95 µM (≈ 18.7 µg/mL)
Structure (SMILES): CC[C@H](C)[C@@H]1NC(=O)[C@@H]2CCCN2C(=O)[C@@H](NC(=O)[C@H](Cc2ccccc2)NC(=O)[C@H](CC(C)C)NC(=O)[C@@H](NC(=O)[C@@H]2CCCN2C(=O)[C@@H](NC(=O)[C@@H](NC(=O)[C@H](CCCCN)NC(=O)[C@H](Cc2ccccc2)NC(=O)[C@H](C)NC(=O)[C@@H](NC(=O)[C@H](CCCCN)NC(=O)[C@H](CC(C)C)NC(=O)[C@H](CC(C)C)NC(=O)[C@@H](NC(=O)[C@H](CO)NC(=O)[C@H](CC(C)C)NC(=O)[C@@H](N)Cc2ccccc2)[C@@H](C)O)C(C)C)C(C)C)C(C)C)[C@@H](C)O)CSSC[C@@H](C(N)=O)NC(=O)[C@H](CCCCN)NC(=O)[C@H](CCCCN)NC(=O)[C@H]([C@@H](C)O)NC1=O [FLSTLLKVAFKVVPTLFCPITKKC]

MIC [11]: 8 µM (≈ 9.79 µg/mL) | MIC [8]: 16 µM (≈ 19.6 µg/mL) | MIC [3]: 64 µM (≈ 78.3 µg/mL) | MIC [14]: 16 µM (≈ 19.6 µg/mL)
Structure (SMILES): CC[C@H](C)[C@H](N)C(=O)N[C@@H](CC(C)C)C(=O)NCC(=O)N[C@H](C(=O)N[C@H](C(=O)N[C@@H](CC(C)C)C(=O)NCC(=O)N[C@@H](CC(C)C)C(=O)N[C@@H](CC(C)C)C(=O)N[C@@H](CCCCN)C(=O)N[C@@H](C)C(=O)N[C@@H](CC(C)C)C(N)=O)[C@@H](C)CC)[C@@H](C)O [ILGTILGLLKAL]

MIC (Shigella dysenteriae): 2.78 µM (≈ 6.24 µg/mL) | MIC (Pseudomonas aeruginosa): 22.3 µM (≈ 49.9 µg/mL) | MIC (Bacillus cereus): 22.3 µM (≈ 49.9 µg/mL) | MIC [1]: 5.57 µM (≈ 12.5 µg/mL) | MIC [2]: 22.3 µM (≈ 49.9 µg/mL) | MIC [3]: 5.57 µM (≈ 12.5 µg/mL)
Structure (SMILES): CSCC[C@@H]1NC(=O)[C@H](CC(C)C)NC(=O)[C@H](C)NC(=O)[C@H](CCCN=C(N)N)NC(=O)[C@H](Cc2ccccc2)NC(=O)[C@H](CC(C)C)NC(=O)CNC(=O)[C@H](CCCCN)NC(=O)[C@@H](NC(=O)[C@H](CCCN=C(N)N)NC(=O)[C@@H]2CCCN2C(=O)[C@@H](NC(=O)[C@H](CO)NC(=O)[C@H](Cc2ccc(O)cc2)NC(=O)[C@H](C)NC(=O)[C@@H](N)CCCCN)[C@@H](C)O)CSSC[C@@H](C(=O)N[C@@H](Cc2c[nH]c3ccccc23)C(=O)N[C@@H](CC(C)C)C(N)=O)NC1=O [KAYSTPRCKGLFRALMCWL]

MIC [15]: 16 µM (≈ 23.2 µg/mL) | MIC (Escherichia coli): 8 µM (≈ 11.6 µg/mL) | MIC [11]: 4 µM (≈ 5.8 µg/mL) | MIC [14]: 32 µM (≈ 46.4 µg/mL)
Structure (SMILES): CC[C@H](C)[C@H](NC(=O)[C@H](CCCCN)NC(=O)[C@H](CCCCN)NC(=O)[C@H](C)NC(=O)[C@@H](NC(=O)[C@H](C)NC(=O)[C@H](CC(C)C)NC(=O)[C@H](CC(C)C)NC(=O)[C@H](C)NC(=O)[C@H](CCCCN)NC(=O)[C@H](CC(C)C)NC(=O)[C@H](CC(N)=O)NC(=O)CN)C(C)C)C(=O)N[C@@H](CC(C)C)C(N)=O [GNLKALLAVAKKIL]

MIC [11]: ≥ 128 µM | MIC [3]: > 128 µM
Structure (SMILES): CC[C@H](C)[C@H](NC(=O)CN)C(=O)N[C@H](C(=O)N[C@@H](C)C(=O)NCC(=O)N[C@H](C(=O)N[C@H](C(=O)N[C@H](C(=O)N[C@@H](CCCCN)C(=O)N[C@H](C(=O)N[C@@H](CCCCN)C(=O)N[C@@H](C)C(N)=O)[C@@H](C)CC)[C@@H](C)CC)[C@@H](C)CC)[C@@H](C)CC)[C@@H](C)CC [GIIAGIIIKIKA]

MIC (Pseudomonas aeruginosa): 73.3 µM (≈ 109 µg/mL) | MIC (Escherichia coli B): 6.3 µM (≈ 9.33 µg/mL) | MIC (Bacillus subtilis 168): 2.1 µM (≈ 3.11 µg/mL) | MIC (Staphylococcus aureus): 41.7 µM (≈ 61.8 µg/mL)
Structure (SMILES): CC[C@H](C)[C@H](NC(=O)[C@H](CC(C)C)NC(=O)[C@H](Cc1cnc[nH]1)NC(=O)CNC(=O)[C@H](CC(C)C)NC(=O)[C@@H](NC(=O)[C@H](CCCCN)NC(=O)[C@H](CO)NC(=O)[C@H](Cc1c[nH]c2ccccc12)NC(=O)[C@H](CCSC)NC(=O)[C@@H](N)CCCCN)[C@@H](C)CC)C(=O)N[C@@H](CCCN=C(N)N)C(N)=O [KMWSKILGHLIR]

MIC (Pseudomonas aeruginosa): 100 µM (≈ 125 µg/mL) | MIC (Escherichia coli B): 7 µM (≈ 8.78 µg/mL) | MIC (Bacillus subtilis 168): 3.5 µM (≈ 4.39 µg/mL) | MIC (Staphylococcus aureus): 15.5 µM (≈ 19.4 µg/mL)
Structure (SMILES): CC[C@H](C)[C@H](NC(=O)[C@H](CC(C)C)NC(=O)[C@H](Cc1cnc[nH]1)NC(=O)CNC(=O)[C@H](CC(C)C)NC(=O)[C@@H](NC(=O)[C@H](CCCCN)NC(=O)[C@H](CO)NC(=O)[C@H](Cc1c[nH]c2ccccc12)NC(=O)[C@H](CCSC)NC(=O)CN)[C@@H](C)CC)C(N)=O [GMWSKILGHLI]

MIC [5]: 8 µM (≈ 14.3 µg/mL) | MIC [8]: 16 µM (≈ 28.5 µg/mL) | MIC [9]: 4 µM (≈ 7.14 µg/mL) | MIC (Escherichia coli UB1005): 4 µM (≈ 7.14 µg/mL) | MIC [3]: 2 µM (≈ 3.57 µg/mL) | MIC [14]: 16 µM (≈ 28.5 µg/mL)
Structure (SMILES): CC(C)C[C@H](NC(=O)[C@H](CCCN=C(N)N)NC(=O)[C@H](Cc1c[nH]c2ccccc12)NC(=O)[C@H](CCCN=C(N)N)NC(=O)[C@@H](NC(=O)[C@H](CCCCN)NC(=O)[C@H](Cc1c[nH]c2ccccc12)NC(=O)[C@H](CCCN=C(N)N)NC(=O)[C@H](CC(C)C)NC(=O)[C@H](Cc1c[nH]c2ccccc12)NC(=O)[C@@H](N)CCCN=C(N)N)[C@@H](C)O)C(=O)N[C@@H](CCCCN)C(N)=O [RWLRWKTRWRLK]
